Values of other authors, collected in patent publication US10463045B2, “Agrochemical composition” (Nippon Soda Co., Ltd., priority 2015, dated 2019).
In brackets after ≈: the same amount, converted by molar mass. Read-outs that look alike come from different tables or passages of the source.

5-butyl-2-dimethylamino-6-methylpyridin-4-ol [dimethirimol]
solubility in water (25° C.): 1,200 mg/l

ClC=CCCl [D-D, 1,3-dichloropropene]
solubility in water (E form, 20° C.): 2,520 mg/l
solubility in water (Z form, 20° C.): 2,450 mg/l

CC(C)N1C(=O)c2ccccc2NS1(=O)=O [bentazon, 3-isopropyl-1H-2,1,3-benzothiadiazin-4(3H)-one-2,2-dioxide]
solubility in water (20° C.): 570 mg/L (≈ 2370 µM)

CN(CC[C@H](N)CC(=O)N[C@H]1C=C[C@H](n2ccc(N)nc2=O)O[C@@H]1C(=O)O)C(=N)N [blasticidin S, 1-(4-amino-1,2-dihydro-2-oxopyrimidin-1-yl)-4-[(S)-3-amino-5-(1-methyl-guanidino)valeramido]-1,2,3,4,-tetradioxy-β-D-erythrohexy-2-enopyranuronic acid]
solubility in water (20° C.): 30,000 mg/l

CC(C1CC1)C(O)(Cn1cncn1)c1ccc(Cl)cc1 (stereo not drawn) [cyproconazole, 2-(4-chlorophenyl)-3-cyclopropyl-1-(1H-1,2,4-triazol-1-yl) butan-2-ol]
solubility in water (pH 6.9): 100 mg/L (≈ 343 µM)

CN1CSC(=S)N(C)C1 [dazomet, 3,5-dimethyl-tetrahydro-2H-1,3,5-thiadiazine-2-thione]
solubility in water (20° C.): 3,500 mg/l

N#CCNC(=O)c1cnccc1C(F)(F)F [flonicamid]
solubility in water (20° C.): 5,200 mg/l

CNC(=O)ON=C(C)SC [methomyl, S-methyl-N-(methylcarbamoyloxy) thioacetimidate]
solubility in water (20° C., pH 7): 46,000 mg/l
